The results in this text go back to PubChem BioAssay (NCI).

SMILES strings stand for the structures.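 These data come from cells grown in 96-well plates and exposed to compound for 48 hours at five concentrations. TGI is the concentration that stops growth completely.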

Some test systems named below: 786-0 renal; A498 renal; BT-549 breast; HT29 colon; IGROV1 ovarian; K-562 leukemia; MDA-MB-231 breast; MDA-N; NCI-H522 lung; OVCAR-4 ovarian; SF-295 CNS; SK-MEL-2 melanoma; SN12C renal; SNB-75 CNS; SW-620 colon.
What all share (test): growth of human tumour cells (NCI), 48 h

With `CNC(=O)CCCN(C)C(=O)CCCCC(=O)N(C)C`, the TGI in the assay with 786-0 renal, with A498 renal, in the assay on BT-549 breast, in the assay on HT29 colon, in the assay with IGROV1 ovarian and in the assay with K-562 leukemia was greater than 100 µM throughout. Besides, the TGI in the assay with MDA-MB-231 breast, in the assay on MDA-N, in the assay with NCI-H522 lung, in the assay on OVCAR-4 ovarian, with SF-295 CNS and in the assay with SK-MEL-2 melanoma was greater than 100 µM each time. Further, the TGI with SN12C renal, in the assay on SNB-75 CNS and with SW-620 colon was greater than 100 µM throughout.
Turning to `O=C(NC1=NC2C=CC([N+](=O)[O-])=CC2S1)C(=O)Nn1c(=S)[nH]c2ccccc2c1=O` (stereo not drawn), the TGI in the assay on 786-0 renal, in the assay with A498 renal, with BT-549 breast, in the assay on HT29 colon, in the assay with IGROV1 ovarian and with K-562 leukemia was greater than 100 µM in each case. For the same compound, the TGI in the assay with MDA-MB-231 breast, with MDA-N, with NCI-H522 lung, in the assay with OVCAR-4 ovarian, with SF-295 CNS and in the assay with SK-MEL-2 melanoma was greater than 100 µM each time. Besides, the TGI in the assay on SN12C renal, in the assay with SNB-75 CNS and in the assay on SW-620 colon was greater than 100 µM each time.
As for `O=c1[nH]nc(Cc2ccc(Cl)cc2)n1/N=C\c1ccc(/C=N/n2c(Cc3ccc(Cl)cc3)n[nH]c2=O)cc1`, the TGI was 53.1 µM in the assay on 786-0 renal; greater than 100 µM in the assay with A498 renal; greater than 100 µM in the assay with BT-549 breast; greater than 100 µM in the assay on HT29 colon; greater than 100 µM with IGROV1 ovarian; greater than 100 µM in the assay on K-562 leukemia. Also, the TGI in the assay on MDA-MB-231 breast was 70.5 µM; in the assay on MDA-N it was greater than 100 µM; in the assay with NCI-H522 lung, greater than 100 µM; with OVCAR-4 ovarian, greater than 100 µM; in the assay with SF-295 CNS it was greater than 100 µM; in the assay on SK-MEL-2 melanoma, greater than 100 µM. The TGI in the assay with SN12C renal and with SW-620 colon was greater than 100 µM each time.
`O=C(O)CC/C(=N\Nc1nsc2ccccc12)c1ccc(Cl)cc1`: the TGI in the assay on 786-0 renal is greater than 100 µM; with A498 renal, 99.4 µM; with BT-549 breast, 74.3 µM; in the assay on HT29 colon, greater than 78.1 µM; in the assay on IGROV1 ovarian it was greater than 100 µM; in the assay on K-562 leukemia, greater than 100 µM. Also, the TGI was 93.2 µM in the assay with MDA-MB-231 breast; greater than 100 µM in the assay on MDA-N; greater than 100 µM in the assay on NCI-H522 lung; greater than 80.2 µM in the assay with OVCAR-4 ovarian; greater than 100 µM with SF-295 CNS; greater than 100 µM in the assay with SK-MEL-2 melanoma. The TGI in the assay on SN12C renal was 57.7 µM; with SNB-75 CNS, 73.1 µM; in the assay on SW-620 colon, greater than 87.8 µM.
With `CN(CCCCN(C)CCc1ccc(Cl)c(Cl)c1)CCCCN1CCCC1`, the TGI with 786-0 renal came out at 2.55 µM; in the assay with A498 renal, 3.14 µM; in the assay on BT-549 breast, 4.6 µM; in the assay on HT29 colon, 1.88 µM; in the assay with IGROV1 ovarian it was 5.57 µM; with MDA-MB-231 breast, 2.25 µM. For the same compound, the TGI with MDA-N came to 2.64 µM; in the assay with NCI-H522 lung, 2.32 µM; in the assay with OVCAR-4 ovarian, 3.66 µM; in the assay with SF-295 CNS it was 3.54 µM; in the assay with SK-MEL-2 melanoma, 3.12 µM; in the assay with SN12C renal it was 4.01 µM. Further, the values for the TGI in the assay with SNB-75 CNS and with SW-620 colon were 3.72 µM and 3.02 µM, respectively.
For the compound `N#CCCN(CCC#N)c1ccc(/C=C2\N=C(c3ccccc3)N(c3ccccn3)C2=O)cc1`, the TGI in the assay on 786-0 renal, in the assay on A498 renal, in the assay with BT-549 breast, with HT29 colon, in the assay with IGROV1 ovarian and with K-562 leukemia was greater than 100 µM in each case. The TGI in the assay on MDA-MB-231 breast, in the assay on MDA-N, with OVCAR-4 ovarian, in the assay on SF-295 CNS, in the assay with SK-MEL-2 melanoma and in the assay with SN12C renal was greater than 100 µM each time. In the assay with SW-620 colon, this compound gave a TGI greater than 100 µM.
For `COc1cc([C@@H]2c3[nH]c4ccccc4c3C(Nc3ccc([N+](=O)[O-])cc3)[C@H]3COC(=O)N23)cc(OC)c1O` (stereo partly drawn), the TGI worked out at 0.665 µM in the assay with 786-0 renal; 0.653 µM in the assay on A498 renal; 4.87 µM in the assay on BT-549 breast; 2.86 µM in the assay with IGROV1 ovarian; 6.97 µM in the assay with K-562 leukemia; 0.648 µM with MDA-MB-231 breast. The TGI with MDA-N was 2.81 µM; with NCI-H522 lung it was 1.97 µM; with OVCAR-4 ovarian it was 5.91 µM; in the assay with SF-295 CNS, 1.02 µM; in the assay with SK-MEL-2 melanoma it was greater than 72.7 µM; in the assay with SN12C renal, 3.76 µM. In the assay with SNB-75 CNS, this compound showed a TGI of 1.66 µM.
With `CC(=O)OCC1OC(n2c(N)c(C#N)c(-c3ccc(C)cc3)c(C#N)c2=S)C(OC(C)=O)C(OC(C)=O)C1OC(C)=O` (stereo not drawn), the TGI was 29.2 µM with 786-0 renal; greater than 100 µM in the assay with A498 renal; greater than 100 µM in the assay on BT-549 breast; 39.1 µM in the assay on HT29 colon; 45.4 µM in the assay on IGROV1 ovarian; greater than 100 µM in the assay with K-562 leukemia. The TGI in the assay on MDA-MB-231 breast is greater than 100 µM; in the assay on MDA-N it was 30.9 µM; in the assay on OVCAR-4 ovarian, greater than 100 µM; in the assay with SF-295 CNS, 73.8 µM; in the assay on SK-MEL-2 melanoma it was 28.5 µM; in the assay with SN12C renal, 41 µM. Further, the results for the TGI in the assay on SNB-75 CNS and in the assay on SW-620 colon were 29.5 µM and greater than 100 µM, respectively.
